# Reference: patent US20150267113A1, “Dimercaptothiadiazoles to Prevent Corrosion of Mild Steel by Acid Gases in Oil and Gas Products” (BAKER HUGHES INCORPORATED, priority 2014, published 2015)
# How the values were obtained:
# [1] = kettle test of corrosion inhibition, atmospheric CO2, NACE brine/ISOPAR-M; conditions: 2.5 or 5 ppm added; 150° F. (66° C.), atmospheric CO2, 90% NACE brine and 10% ISOPAR-M; immediately after injection; blank 140 to 190 mpy
# Protocol: FIG. 1 is a graph of the corrosion rate of mild steel at 150° F. (66° C.) in kettle tests at atmospheric CO2 with two different concentrations of 2,5-dimercapto-1,3,4-thiadiazole in a brine fluid.
# A formulation of 10% 2,5-dimercapto-1,3,4 thiadiazole (DMTDA) in water with KOH added to adjust the pH to 8.1 was made. The corrosion inhibition of this formulation was tested in a kettle test at 150° F. (66° C.), atmospheric CO2 in a 90% NACE (National Association of Corrosion Engineers) brine and 10% ISOPAR™-M mixture.
# The blank corrosion rates range from 140 to 190 mpy (mils per year). Immediately with the injection of the corrosion inhibitor, the corrosion rate lowered to below 40 mpy in the test with the addition of 2.5 or 5 ppm of 2,5-dimercapto-1,3,4-thiadiazole.
# [2] = cited from earlier work
compound,measurement,setting,value
"Sc1nnc(S)s1 [2,5-dimercapto-1,3,4-thiadiazole]",corrosion rate,[1],below 40 mpy
same,solubility in water,[2],0.01 wt %
